Experimental data taken from ChEMBL document CHEMBL4507319 (2021).

Tests used:
[1] = biological target: Muscarinic acetylcholine receptor M2 (Homo sapiens) (UniProt P08172); details: Compound concentration 10.0 uM
[2] = biological target: T1, Interleukin-1 receptor-associated kinase 4 (Homo sapiens) (UniProt Q9NWZ3); details: Compound concentration 1000.0 nM
T1 sequence (whole entry): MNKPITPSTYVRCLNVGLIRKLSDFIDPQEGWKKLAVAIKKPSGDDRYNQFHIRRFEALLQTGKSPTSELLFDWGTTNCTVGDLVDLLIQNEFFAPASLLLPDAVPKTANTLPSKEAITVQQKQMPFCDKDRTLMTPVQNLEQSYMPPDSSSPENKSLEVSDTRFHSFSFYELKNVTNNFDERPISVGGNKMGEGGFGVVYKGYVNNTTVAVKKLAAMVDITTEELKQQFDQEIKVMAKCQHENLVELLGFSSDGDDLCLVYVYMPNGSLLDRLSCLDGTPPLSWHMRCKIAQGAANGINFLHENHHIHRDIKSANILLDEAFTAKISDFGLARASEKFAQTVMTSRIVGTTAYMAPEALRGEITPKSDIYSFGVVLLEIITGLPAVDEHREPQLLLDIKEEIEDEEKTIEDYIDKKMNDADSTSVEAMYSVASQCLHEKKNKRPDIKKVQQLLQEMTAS

[3] = biological target: T2, Inhibitor of nuclear factor kappa-B kinase subunit epsilon (Homo sapiens) (UniProt Q14164); details: Compound concentration 1000.0 nM
T2 sequence (whole entry): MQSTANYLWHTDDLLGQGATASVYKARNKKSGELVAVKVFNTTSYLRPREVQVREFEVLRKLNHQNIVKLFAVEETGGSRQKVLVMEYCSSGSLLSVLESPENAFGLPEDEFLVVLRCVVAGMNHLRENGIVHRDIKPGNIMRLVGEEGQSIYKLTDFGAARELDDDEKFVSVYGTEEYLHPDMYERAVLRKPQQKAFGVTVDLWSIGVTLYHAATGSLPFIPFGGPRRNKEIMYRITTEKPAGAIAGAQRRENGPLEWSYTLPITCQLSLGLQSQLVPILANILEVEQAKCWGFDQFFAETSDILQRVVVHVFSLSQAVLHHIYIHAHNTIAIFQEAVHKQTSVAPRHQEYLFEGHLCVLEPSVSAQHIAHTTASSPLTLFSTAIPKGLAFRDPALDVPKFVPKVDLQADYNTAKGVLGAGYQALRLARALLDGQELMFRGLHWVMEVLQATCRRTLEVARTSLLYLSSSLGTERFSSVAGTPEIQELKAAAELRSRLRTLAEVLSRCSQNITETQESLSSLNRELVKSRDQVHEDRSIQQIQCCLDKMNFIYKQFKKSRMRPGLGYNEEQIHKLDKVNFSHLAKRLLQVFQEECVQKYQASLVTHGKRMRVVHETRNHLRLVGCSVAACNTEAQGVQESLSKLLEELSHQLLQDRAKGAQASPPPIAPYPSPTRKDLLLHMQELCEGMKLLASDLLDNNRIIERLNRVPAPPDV

[4] = biological target: T3, Mitogen-activated protein kinase kinase kinase 5 (Homo sapiens) (UniProt Q99683); details: Compound concentration 1000.0 nM
T3 sequence (whole entry): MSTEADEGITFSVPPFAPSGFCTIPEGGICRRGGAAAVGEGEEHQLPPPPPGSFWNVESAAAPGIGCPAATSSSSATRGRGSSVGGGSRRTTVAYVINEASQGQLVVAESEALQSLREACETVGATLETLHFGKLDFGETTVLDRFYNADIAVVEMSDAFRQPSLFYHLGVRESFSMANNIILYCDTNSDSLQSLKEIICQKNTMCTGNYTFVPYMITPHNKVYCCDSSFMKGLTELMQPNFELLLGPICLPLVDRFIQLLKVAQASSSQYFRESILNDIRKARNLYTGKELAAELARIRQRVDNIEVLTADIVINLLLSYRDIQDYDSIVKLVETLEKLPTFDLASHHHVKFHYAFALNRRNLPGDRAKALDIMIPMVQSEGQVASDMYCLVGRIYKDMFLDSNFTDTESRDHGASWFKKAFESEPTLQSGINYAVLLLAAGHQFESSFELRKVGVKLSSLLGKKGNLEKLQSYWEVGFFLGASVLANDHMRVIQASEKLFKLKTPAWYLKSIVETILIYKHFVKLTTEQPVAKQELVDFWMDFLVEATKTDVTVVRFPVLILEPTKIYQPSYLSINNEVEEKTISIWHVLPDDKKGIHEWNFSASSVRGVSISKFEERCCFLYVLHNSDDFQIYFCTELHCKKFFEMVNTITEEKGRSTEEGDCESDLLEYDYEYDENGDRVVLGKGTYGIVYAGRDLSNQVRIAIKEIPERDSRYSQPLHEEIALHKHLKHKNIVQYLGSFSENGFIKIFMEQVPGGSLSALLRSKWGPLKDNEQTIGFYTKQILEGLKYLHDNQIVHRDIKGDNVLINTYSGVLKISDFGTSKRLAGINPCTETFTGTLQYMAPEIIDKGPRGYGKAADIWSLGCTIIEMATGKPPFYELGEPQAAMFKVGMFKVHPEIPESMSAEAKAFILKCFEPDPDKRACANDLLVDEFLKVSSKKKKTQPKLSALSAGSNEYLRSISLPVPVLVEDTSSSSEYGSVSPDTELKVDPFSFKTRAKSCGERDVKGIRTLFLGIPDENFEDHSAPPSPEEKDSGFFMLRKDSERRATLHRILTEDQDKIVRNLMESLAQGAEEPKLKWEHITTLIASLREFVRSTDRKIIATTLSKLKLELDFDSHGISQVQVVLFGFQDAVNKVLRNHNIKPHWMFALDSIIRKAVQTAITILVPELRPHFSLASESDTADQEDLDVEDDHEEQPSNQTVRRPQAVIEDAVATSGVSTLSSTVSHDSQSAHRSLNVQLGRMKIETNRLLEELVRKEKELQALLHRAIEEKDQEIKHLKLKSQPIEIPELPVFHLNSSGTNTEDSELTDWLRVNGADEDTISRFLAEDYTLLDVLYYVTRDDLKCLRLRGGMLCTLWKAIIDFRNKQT

[5] = biological target: Phosphatidylinositol 4,5-bisphosphate 3-kinase catalytic subunit delta isoform (Homo sapiens) (UniProt O00329); details: Compound concentration 1000.0 nM
[6] = biological target: Calcium/calmodulin-dependent protein kinase type 1B (Homo sapiens) (UniProt Q6P2M8); details: Compound concentration 1000.0 nM
[7] = biological target: Serine/threonine-protein kinase 33 (Homo sapiens) (UniProt Q9BYT3); details: Compound concentration 1000.0 nM
[8] = biological target: Tyrosine-protein kinase HCK (Homo sapiens) (UniProt P08631); details: Compound concentration 1000.0 nM
[9] = biological target: Phosphatidylinositol 4,5-bisphosphate 3-kinase catalytic subunit gamma isoform (Homo sapiens) (UniProt P48736); details: Compound concentration 1000.0 nM
[10] = biological target: Serine/threonine-protein kinase PknB (Mycobacterium tuberculosis) (UniProt P9WI81); details: Compound concentration 1000.0 nM
Serine/threonine-protein kinase PknB (Mycobacterium tuberculosis), sequence (P9WI81 whole entry): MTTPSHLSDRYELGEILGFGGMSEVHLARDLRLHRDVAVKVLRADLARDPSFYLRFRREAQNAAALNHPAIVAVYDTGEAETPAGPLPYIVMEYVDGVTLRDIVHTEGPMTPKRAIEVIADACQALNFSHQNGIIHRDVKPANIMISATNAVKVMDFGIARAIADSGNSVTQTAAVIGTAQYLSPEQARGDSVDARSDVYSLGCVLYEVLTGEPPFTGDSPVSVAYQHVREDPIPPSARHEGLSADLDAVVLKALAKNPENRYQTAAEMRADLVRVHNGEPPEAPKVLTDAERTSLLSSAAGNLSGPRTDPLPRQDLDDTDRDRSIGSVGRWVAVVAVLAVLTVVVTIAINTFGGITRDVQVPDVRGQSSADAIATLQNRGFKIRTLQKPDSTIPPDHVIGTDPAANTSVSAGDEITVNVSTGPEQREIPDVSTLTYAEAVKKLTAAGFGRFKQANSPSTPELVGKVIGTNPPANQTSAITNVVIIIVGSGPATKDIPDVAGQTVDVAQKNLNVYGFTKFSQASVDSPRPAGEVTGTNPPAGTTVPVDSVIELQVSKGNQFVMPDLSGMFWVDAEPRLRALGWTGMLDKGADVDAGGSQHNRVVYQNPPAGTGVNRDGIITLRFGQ

Muscarinic acetylcholine receptor M2 (Homo sapiens), sequence (P08172 whole entry): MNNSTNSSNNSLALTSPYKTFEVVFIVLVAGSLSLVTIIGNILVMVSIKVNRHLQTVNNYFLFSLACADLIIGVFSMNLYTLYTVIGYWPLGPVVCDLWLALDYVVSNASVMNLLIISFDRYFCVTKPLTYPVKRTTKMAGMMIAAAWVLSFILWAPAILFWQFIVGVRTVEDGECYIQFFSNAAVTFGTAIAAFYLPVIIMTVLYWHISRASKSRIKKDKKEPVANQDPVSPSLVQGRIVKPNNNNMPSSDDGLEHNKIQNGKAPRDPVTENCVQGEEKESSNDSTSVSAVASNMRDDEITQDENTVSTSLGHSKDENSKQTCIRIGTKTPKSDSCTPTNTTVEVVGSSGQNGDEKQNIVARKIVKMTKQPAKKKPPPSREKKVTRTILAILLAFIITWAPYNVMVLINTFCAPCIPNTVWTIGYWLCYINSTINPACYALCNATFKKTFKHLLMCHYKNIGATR
Phosphatidylinositol 4,5-bisphosphate 3-kinase catalytic subunit delta isoform (Homo sapiens), sequence (O00329 whole entry, canonical isoform): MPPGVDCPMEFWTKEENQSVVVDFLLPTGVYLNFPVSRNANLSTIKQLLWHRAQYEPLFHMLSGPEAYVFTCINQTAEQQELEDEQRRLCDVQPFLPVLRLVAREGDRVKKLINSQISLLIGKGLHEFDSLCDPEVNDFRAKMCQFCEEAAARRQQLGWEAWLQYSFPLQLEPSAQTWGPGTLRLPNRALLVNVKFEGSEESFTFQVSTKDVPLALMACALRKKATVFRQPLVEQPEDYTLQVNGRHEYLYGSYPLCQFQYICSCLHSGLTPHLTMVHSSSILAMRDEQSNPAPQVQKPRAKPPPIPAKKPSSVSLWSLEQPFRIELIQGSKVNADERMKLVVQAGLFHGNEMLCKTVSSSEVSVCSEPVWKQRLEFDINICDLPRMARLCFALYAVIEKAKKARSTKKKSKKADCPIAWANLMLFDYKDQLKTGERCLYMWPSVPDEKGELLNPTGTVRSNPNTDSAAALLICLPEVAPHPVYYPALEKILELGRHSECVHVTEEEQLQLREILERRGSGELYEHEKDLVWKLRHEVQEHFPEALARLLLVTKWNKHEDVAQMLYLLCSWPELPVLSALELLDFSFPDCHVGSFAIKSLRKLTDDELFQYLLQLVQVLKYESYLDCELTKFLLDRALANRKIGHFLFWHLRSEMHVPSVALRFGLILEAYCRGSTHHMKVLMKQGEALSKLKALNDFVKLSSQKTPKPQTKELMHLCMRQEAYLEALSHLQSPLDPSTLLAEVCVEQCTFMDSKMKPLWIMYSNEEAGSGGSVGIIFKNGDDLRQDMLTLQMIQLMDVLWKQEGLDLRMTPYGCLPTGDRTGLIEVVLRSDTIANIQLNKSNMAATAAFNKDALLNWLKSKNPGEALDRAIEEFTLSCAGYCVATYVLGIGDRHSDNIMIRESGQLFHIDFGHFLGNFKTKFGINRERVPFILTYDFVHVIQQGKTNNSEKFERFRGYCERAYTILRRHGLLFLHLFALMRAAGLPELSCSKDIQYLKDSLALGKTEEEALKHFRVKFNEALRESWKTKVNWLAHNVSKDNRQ
Calcium/calmodulin-dependent protein kinase type 1B (Homo sapiens), sequence (Q6P2M8 whole entry): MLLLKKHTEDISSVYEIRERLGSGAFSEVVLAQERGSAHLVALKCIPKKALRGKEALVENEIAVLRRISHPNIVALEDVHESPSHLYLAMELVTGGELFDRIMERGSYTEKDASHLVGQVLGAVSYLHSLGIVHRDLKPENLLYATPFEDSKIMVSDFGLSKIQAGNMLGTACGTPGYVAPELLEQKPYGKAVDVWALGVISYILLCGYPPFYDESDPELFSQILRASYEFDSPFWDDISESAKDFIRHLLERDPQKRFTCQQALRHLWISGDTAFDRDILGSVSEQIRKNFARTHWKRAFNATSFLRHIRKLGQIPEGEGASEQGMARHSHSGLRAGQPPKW
Tyrosine-protein kinase HCK (Homo sapiens), sequence (P08631 2-526 limits assumed): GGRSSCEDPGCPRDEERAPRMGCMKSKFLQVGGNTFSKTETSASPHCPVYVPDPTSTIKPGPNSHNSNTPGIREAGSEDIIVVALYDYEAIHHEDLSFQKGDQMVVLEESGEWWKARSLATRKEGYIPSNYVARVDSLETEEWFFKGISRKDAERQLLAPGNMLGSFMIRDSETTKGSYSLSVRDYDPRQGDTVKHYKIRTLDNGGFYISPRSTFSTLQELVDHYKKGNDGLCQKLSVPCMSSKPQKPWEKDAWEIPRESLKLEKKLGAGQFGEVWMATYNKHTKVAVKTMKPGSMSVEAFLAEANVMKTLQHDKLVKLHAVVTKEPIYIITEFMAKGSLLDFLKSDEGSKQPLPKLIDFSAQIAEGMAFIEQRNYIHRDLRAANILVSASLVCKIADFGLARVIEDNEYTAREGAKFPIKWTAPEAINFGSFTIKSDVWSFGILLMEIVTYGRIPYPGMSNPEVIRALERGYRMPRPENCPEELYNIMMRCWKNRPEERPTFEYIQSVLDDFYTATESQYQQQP
Serine/threonine-protein kinase 33 (Homo sapiens), sequence (Q9BYT3 whole entry, looked up): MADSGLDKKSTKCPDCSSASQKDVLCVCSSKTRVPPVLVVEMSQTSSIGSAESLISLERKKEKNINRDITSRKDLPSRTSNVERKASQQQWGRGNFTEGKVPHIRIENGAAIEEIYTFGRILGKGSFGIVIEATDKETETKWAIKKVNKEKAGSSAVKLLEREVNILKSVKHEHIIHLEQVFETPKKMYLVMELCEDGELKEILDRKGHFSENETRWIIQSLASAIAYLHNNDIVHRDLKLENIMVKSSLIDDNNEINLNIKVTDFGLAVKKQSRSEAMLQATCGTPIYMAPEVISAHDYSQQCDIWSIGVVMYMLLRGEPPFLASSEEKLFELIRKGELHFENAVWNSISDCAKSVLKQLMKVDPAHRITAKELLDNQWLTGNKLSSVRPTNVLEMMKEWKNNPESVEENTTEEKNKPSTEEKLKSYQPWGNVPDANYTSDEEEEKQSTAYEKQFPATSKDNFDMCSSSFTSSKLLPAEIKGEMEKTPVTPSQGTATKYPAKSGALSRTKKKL
Phosphatidylinositol 4,5-bisphosphate 3-kinase catalytic subunit gamma isoform (Homo sapiens), sequence (P48736 whole entry, looked up, canonical isoform): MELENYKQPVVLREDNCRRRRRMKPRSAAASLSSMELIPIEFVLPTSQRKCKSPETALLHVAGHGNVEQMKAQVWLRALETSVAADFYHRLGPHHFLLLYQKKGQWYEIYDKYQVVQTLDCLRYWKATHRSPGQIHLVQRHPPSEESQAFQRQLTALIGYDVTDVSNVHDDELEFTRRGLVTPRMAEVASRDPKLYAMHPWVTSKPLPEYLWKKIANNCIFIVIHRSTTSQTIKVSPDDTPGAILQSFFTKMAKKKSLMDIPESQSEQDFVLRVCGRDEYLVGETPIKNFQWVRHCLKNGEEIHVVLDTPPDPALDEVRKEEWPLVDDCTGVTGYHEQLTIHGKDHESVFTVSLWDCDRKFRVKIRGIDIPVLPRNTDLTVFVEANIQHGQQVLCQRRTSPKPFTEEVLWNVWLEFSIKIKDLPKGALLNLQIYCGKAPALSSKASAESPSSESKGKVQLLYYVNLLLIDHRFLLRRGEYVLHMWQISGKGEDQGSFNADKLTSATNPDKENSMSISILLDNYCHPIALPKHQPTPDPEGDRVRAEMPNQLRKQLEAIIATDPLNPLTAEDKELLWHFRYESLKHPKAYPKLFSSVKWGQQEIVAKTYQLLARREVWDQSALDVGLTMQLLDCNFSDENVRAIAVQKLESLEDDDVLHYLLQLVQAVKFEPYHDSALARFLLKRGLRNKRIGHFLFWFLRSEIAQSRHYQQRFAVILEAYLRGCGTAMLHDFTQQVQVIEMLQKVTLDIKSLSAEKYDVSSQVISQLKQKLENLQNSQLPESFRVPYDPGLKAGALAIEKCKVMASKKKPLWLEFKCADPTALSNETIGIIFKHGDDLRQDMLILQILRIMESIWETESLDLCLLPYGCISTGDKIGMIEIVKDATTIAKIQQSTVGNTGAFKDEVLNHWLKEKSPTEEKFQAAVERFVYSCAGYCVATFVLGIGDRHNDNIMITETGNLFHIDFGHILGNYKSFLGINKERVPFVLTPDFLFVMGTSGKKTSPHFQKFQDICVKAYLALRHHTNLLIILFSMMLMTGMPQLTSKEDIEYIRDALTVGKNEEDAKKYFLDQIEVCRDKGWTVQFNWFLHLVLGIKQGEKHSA

Structure (SMILES) | inhibition [1] [%] | residual activity [2] [%] | residual activity [3] [%] | residual activity [4] [%] | residual activity [5] [%] | residual activity [6] [%] | residual activity [7] [%] | residual activity [8] [%] | residual activity [9] [%] | residual activity [10] [%]
CCc1ccccc1C(=O)Nc1n[nH]c2c(C)c(F)c(C3C(C#N)=C(C)N(C)C(C)=C3C#N)cc12 [BAY-3827] | 5.1 | 100 | 68 | 100 | 90 | 100 | 100 | 100 | 100 | 85
CC1=C(C#N)C(c2ccc3c(c2)c(NC(=O)c2ccccc2C)nn3C)C(C#N)=C(C)N1 [BAY-974] | -2.08 | 7.5 | 100 | 89 | 71 | 85 | 100 | 66 | 84 | 97
